Laboratory results: US11339130B1 (Blade Therapeutics, Inc., priority 2016, dated 2022)

Tests used:
Human Calpain 2/NS1 = target: T1, Human Calpain 2/NS1 (Homo sapiens, UniProt P17655); test: Calpain inhibition continuous fluorescence (FRET) assay, Human Calpain 2/NS1; assay type: biochemical; settings: Column B; read-out: Human Calpain 2/NS1 IC50
T1 sequence (P17655 1-700): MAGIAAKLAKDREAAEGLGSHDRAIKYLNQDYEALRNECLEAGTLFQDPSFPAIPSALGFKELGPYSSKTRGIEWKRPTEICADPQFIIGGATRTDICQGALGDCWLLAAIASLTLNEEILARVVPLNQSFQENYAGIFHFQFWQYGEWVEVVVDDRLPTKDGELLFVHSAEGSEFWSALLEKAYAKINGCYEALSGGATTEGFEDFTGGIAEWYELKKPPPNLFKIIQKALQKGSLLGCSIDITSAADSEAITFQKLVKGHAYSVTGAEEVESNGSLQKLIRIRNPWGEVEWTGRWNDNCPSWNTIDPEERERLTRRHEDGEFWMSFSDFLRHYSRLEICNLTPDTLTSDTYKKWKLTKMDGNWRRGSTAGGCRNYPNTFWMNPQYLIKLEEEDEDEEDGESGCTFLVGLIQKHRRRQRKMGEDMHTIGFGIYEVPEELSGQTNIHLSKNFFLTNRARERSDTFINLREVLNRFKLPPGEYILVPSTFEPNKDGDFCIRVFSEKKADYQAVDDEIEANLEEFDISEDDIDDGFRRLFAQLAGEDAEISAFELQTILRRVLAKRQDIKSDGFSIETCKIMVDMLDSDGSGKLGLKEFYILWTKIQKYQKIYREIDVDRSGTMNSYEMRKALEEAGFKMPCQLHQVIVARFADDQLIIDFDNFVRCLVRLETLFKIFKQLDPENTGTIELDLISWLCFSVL
T1 sequence (P04632 1-268 partner): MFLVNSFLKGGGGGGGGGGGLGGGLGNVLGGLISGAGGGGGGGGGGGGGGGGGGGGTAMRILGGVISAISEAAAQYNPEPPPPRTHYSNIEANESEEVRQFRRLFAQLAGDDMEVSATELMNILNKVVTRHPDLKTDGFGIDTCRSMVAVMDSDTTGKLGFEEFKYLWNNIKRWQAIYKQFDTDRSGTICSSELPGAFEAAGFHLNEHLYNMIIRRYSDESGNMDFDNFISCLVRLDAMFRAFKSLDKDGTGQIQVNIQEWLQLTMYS
How it was run: (§1)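 Buffer 50 mM Tris pH 7.5/100 mM NaCl/1 mM DTT; enzyme + cpd preinc 25C; start w/ FRET substrate + CaCl2; kinetic 490/520 nm, 10 min; slopes 1-5 min; 4-PL IC50.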

Human Calpain 9/NS1 = target: T2, Human Calpain 9/NS1 (Homo sapiens, UniProt O14815); test: Calpain inhibition continuous fluorescence (FRET) assay, Human Calpain 9/NS1; assay type: biochemical; settings: Column C; read-out: Human Calpain 9/NS1 IC50
T2 sequence (O14815 1-690): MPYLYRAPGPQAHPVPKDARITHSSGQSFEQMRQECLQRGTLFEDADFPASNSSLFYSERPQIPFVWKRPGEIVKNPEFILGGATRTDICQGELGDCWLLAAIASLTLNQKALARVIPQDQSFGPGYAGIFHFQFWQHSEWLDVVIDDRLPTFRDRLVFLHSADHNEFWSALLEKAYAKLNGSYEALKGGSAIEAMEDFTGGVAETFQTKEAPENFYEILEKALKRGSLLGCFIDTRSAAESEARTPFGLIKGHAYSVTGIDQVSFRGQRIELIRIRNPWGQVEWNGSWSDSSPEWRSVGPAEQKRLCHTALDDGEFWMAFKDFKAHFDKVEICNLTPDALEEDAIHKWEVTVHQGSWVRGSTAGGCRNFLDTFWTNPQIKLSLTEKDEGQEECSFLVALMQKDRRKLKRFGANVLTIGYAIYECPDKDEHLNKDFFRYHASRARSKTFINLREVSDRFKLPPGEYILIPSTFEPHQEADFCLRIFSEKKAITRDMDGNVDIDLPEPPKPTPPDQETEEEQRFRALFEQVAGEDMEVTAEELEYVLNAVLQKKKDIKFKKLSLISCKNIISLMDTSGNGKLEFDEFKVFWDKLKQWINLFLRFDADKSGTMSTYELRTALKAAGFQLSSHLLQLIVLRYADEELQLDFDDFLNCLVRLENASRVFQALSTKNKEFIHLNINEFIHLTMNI
T2 sequence (P04632 1-268 partner): T1 sequence (P04632 1-268 partner)
How it was run: as §1

[1] = test system: Calpain activity in SH-SY5Y cells; test: SH-SY5Y + AMC fluorescence assay (Suc-LLVY-AMC substrate); assay type: cell-based; settings: Column E, read-out: SH-SY5Y + AMC IC50
[2] = test system: Calpain activity in SH-SY5Y cells (SBDP-150); test: SH-SY5Y Spectrin western blot assay (SBDP-150 breakdown product, A23187-induced); assay type: cell-based; settings: Homo sapiens; Column D; SH-SY5Y cells, A23187-induced SBDP-150; read-out: SH-SY5Y Spectrin IC50
Human Calpain 1/NS1 = target: T3, Human Calpain 1/NS1 (Homo sapiens, UniProt P07384); test: Calpain inhibition continuous fluorescence (FRET) assay, Human Calpain 1/NS1; assay type: biochemical; settings: Column A; read-out: Human Calpain 1/NS1 IC50
T3 sequence (P07384 1-714): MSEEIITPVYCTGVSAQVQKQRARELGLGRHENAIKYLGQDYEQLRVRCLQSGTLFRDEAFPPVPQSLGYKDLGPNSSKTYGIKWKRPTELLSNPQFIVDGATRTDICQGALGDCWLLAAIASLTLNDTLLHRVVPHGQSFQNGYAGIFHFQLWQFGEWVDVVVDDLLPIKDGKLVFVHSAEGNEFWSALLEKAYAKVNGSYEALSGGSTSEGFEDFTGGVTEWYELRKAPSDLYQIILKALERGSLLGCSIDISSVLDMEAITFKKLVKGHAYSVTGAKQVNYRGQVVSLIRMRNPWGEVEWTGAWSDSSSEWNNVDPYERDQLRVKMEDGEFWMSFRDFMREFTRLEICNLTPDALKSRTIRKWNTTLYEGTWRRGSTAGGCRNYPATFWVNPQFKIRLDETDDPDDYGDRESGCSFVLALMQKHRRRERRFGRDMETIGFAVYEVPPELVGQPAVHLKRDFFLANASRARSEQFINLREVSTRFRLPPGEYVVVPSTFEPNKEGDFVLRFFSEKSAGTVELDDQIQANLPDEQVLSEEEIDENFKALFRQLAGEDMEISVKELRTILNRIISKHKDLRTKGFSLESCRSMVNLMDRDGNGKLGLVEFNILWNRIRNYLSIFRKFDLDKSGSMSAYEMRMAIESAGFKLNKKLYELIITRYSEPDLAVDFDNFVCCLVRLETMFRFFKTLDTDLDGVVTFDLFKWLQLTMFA
T3 sequence (P04632 1-268 partner): T1 sequence (P04632 1-268 partner)
How it was run: as §1

IC50 (Human Calpain 2/NS1) | IC50 (Human Calpain 9/NS1) | IC50 [1] | IC50 [2] | IC50 (Human Calpain 1/NS1) | Compound
< 3 µM | < 3 µM | > 25 µM | < 10 µM | < 3 µM | Cc1cc(C(=O)N[C@@H](Cc2ccccc2)C(=O)C(N)=O)n(-c2ccc(COCc3ccccc3)cc2)n1 [Compound 228, (S)—N-(4-amino-3,4-dioxo-1-phenylbutan-2-yl)-1-(4-((benzyloxy)methyl)phenyl)-3-methyl-1H-pyrazole-5-carboxamide]
< 3 µM | < 3 µM | < 10 µM | < 10 µM | < 3 µM | CCOCc1cccc(-n2nc(C)cc2C(=O)N[C@@H](Cc2ccccc2)C(=O)C(N)=O)c1 [Compound 229, (S)—N-(4-amino-3,4-dioxo-1-phenylbutan-2-yl)-1-(3-(ethoxymethyl)phenyl)-3-methyl-1H-pyrazole-5-carboxamide]
< 3 µM | < 3 µM | < 10 µM | < 10 µM | < 3 µM | Cc1cc(C(=O)N[C@@H](Cc2ccccc2)C(=O)C(N)=O)n(-c2cccc(COCc3ccccc3)c2)n1 [Compound 230, (S)—N-(4-amino-3,4-dioxo-1-phenylbutan-2-yl)-1-(3-((benzyloxy)methyl)phenyl)-3-methyl-1H-pyrazole-5-carboxamide]
< 3 µM | < 3 µM | > 25 µM | > 25 µM | < 3 µM | Cc1cc(C(=O)N[C@@H](Cc2ccccc2)C(=O)C(N)=O)n(-c2cccc(COc3ccccc3)c2)n1 [Compound 231, (S)—N-(4-amino-3,4-dioxo-1-phenylbutan-2-yl)-3-methyl-1-(3-(phenoxymethyl)phenyl)-1H-pyrazole-5-carboxamide]
< 3 µM | < 3 µM | < 10 µM | 10 to 25 µM | < 3 µM | CCn1cc(C(=O)N[C@@H](Cc2ccccc2)C(=O)C(N)=O)c(-c2ccccc2)n1 [Compound 239, (S)—N-(4-amino-3,4-dioxo-1-phenylbutan-2-yl)-1-ethyl-3-phenyl-1H-pyrazole-4-carboxamide]
< 3 µM | < 3 µM | < 10 µM | > 25 µM | < 3 µM | CC(C)n1cc(C(=O)N[C@@H](Cc2ccccc2)C(=O)C(N)=O)c(-c2ccccc2)n1 [Compound 242, (S)—N-(4-amino-3,4-dioxo-1-phenylbutan-2-yl)-1-isopropyl-3-phenyl-1H-pyrazole-4-carboxamide]
< 3 µM | < 3 µM | > 25 µM | 10 to 25 µM | < 3 µM | CC[C@H](NC(=O)c1oc(C)nc1-c1ccccc1)C(=O)C(N)=O [Compound 243, (S)—N-(1-amino-1,2-dioxopentan-3-yl)-2-methyl-4-phenyloxazole-5-carboxamide]
< 3 µM | < 3 µM | < 10 µM | > 25 µM | < 3 µM | Cc1cc(C(=O)N[C@@H](Cc2ccccc2)C(=O)C(N)=O)n(-c2ccnc(C)n2)n1 [Compound 244, (S)—N-(4-amino-3,4-dioxo-1-phenylbutan-2-yl)-3-methyl-1-(2-methylpyrimidin-4-yl)-1H-pyrazole-5-carboxamide]
< 3 µM | < 3 µM | < 10 µM | 10 to 25 µM | < 3 µM | Cc1cc(C(=O)N[C@@H](Cc2ccccc2)C(=O)C(N)=O)n(-c2ccncn2)n1 [Compound 245, (S)—N-(4-amino-3,4-dioxo-1-phenylbutan-2-yl)-3-methyl-1-(pyrimidin-4-yl)-1H-pyrazole-5-carboxamide]
< 3 µM | < 3 µM | < 10 µM | 10 to 25 µM | < 3 µM | Cc1cc(C(=O)N[C@@H](Cc2ccccc2)C(=O)C(N)=O)n(-c2ccnc(Cl)n2)n1 [Compound 246, (S)—N-(4-amino-3,4-dioxo-1-phenylbutan-2-yl)-1-(2-chloropyrimidin-4-yl)-3-methyl-1H-pyrazole-5-carboxamide]
< 3 µM | < 3 µM | < 10 µM | < 10 µM | < 3 µM | Cc1nc(-c2ccc(F)cc2)c(C(=O)N[C@@H](Cc2ccccc2)C(=O)C(N)=O)o1 [Compound 248, (S)—N-(4-amino-3,4-dioxo-1-phenylbutan-2-yl)-4-(4-fluorophenyl)-2-methyloxazole-5-carboxamide]
< 3 µM | < 3 µM | > 25 µM | 10 to 25 µM | < 3 µM | NC(=O)C(=O)[C@H](Cc1ccccc1)NC(=O)c1c(-c2ccccc2)oc2ccccc12 [Compound 249, (S)—N-(4-amino-3,4-dioxo-1-phenylbutan-2-yl)-2-phenylbenzofuran-3-carboxamide]
< 3 µM | < 3 µM | > 25 µM | > 25 µM | < 3 µM | NC(=O)C(=O)[C@H](Cc1ccccc1)NC(=O)c1cn(CC2CC2)nc1-c1ccccc1 [Compound 251, (S)—N-(4-amino-3,4-dioxo-1-phenylbutan-2-yl)-1-(cyclopropylmethyl)-3-phenyl-1H-pyrazole-4-carboxamide]
> 10 µM | > 10 µM | > 25 µM | > 25 µM | > 10 µM | NC(=O)C(=O)[C@H](Cc1ccccc1)NC(=O)c1cn(C#Cc2ccccc2)c2ccccc12 [Compound 252, (S)—N-(4-amino-3,4-dioxo-1-phenylbutan-2-yl)-1-(phenylethynyl)-1H-indole-3-carboxamide]
< 3 µM | < 3 µM | > 25 µM | 10 to 25 µM | < 3 µM | Cc1nc(-c2ccccc2)c(C(=O)N[C@@H](CC(C)C)C(=O)C(N)=O)o1 [Compound 253, (S)—N-(1-amino-5-methyl-1,2-dioxohexan-3-yl)-2-methyl-4-phenyloxazole-5-carboxamide]
